Data published in US9688653B2, “Ethoxyphenyl thienyl compounds and methods for the treatment of bacterial infections” (Duke University, priority 2013, dated 2017).

Assays:
E. coli K1 strain UTI89 [1] = experiment: microbe, parasite or virus in culture; details: read-out: K1 phage IC50, n = 3
Text: The ability of the […] to bind to bacterial capsule, infect, and lyse E. coli UT189 was used as the primary assay to identify the effects of screened compounds on bacterial capsule formation. The phenotypic end-point assay measured the fluorescence generated by cellular processing of Alamar Blue as a direct indicator of cell viability. A total of […] compounds were screened using the primary assay. […] Hits were further evaluated using […] secondary assays for alternative measurement of compound-induced reduction in bacterial capsule formation (secondary assays 1 and 2) and specificity (secondary assays 3 and 4). Confirmed actives with an SI>5 were further investigated and subjected to chemical optimization, followed by secondary assay evaluation. Secondary assays more closely characterized the ability of the compounds to reduce bacterial capsule formation and can be used to examine the mechanism of action of the compounds. The combination of primary assay (to measure capsule reduction), counter assay (for general eukaryotic cell toxicity) and secondary assay (to measure reduction in capsule formation and specificity) were combined to allow a determination of probe efficacy, selectivity, and specificity.
A. Primary Assay: Screening for Inhibitors of Bacterial Capsule Biogenesis.
Primary assay: An end-point assay to measure the amount of K1 phage-induced bacterial cell lysis was employed to determine the compound effect on capsule biogenesis. K1 bacteriophage specifically binds the bacterial capsule during the initial stages of infection. Bacteria without capsule cannot be infected and lysed by the bacteriophage. […] A total of 338,740 compounds were screened at 100 μM in the primary screen Inhibition of phage lysis was calculated relative to the mean of the bacterial (positive) control on each microtiter plate. […] For calculation of S/B/Z value, and CV, the following formulae (in which SD stands for standard deviation) were used: S/B=mean signal/mean background; Z=1-3SD of sample+3SD of control mean of sample−mean of control; % CV=(SD mean signal/mean signal)×100.
IC50 values were calculated using a 4 parameter Levenburg-Marquardt algorithm, with the maximum and minimum locked at 0 and 100 respectively.
Primary assay: The primary assay was conducted in the 1,536 well plate format. Bacterial cultures of E. coli K1 strain UTI89 (cystitis isolate) and isogenic capsule mutant strains (as controls for phage infection) were grown and prepared at the screening center immediately prior to use. Overnight starting cultures of UTI89 were grown at 37° C., and inoculated into 1 liter of LB (starting OD600˜0.03), which was sufficient for screening 40 plates (including ˜10% waste) and ˜40,000 compounds as single points.
Control wells contained UTI89 (wt K1) with 0.5% DMSO as a simulated positive control; UTI89 with 0.5% DMSO and tetracycline for a negative growth control; and media plus vehicle control. 50 mL of LB Broth was inoculated with stock 150 μL E. coli UT189 and grown overnight at 37° C. The next day, cultures were diluted 1:75 in 1 L of LB Broth containing 0.5% DMSO. 3 μL of this culture was added to each plate well, and plates were incubated, inverted, at 37° C. for 2 hr. The K1F bacteriophage stock was diluted 1:8 in LB Broth containing 0.5% DMSO, and 1.5 μL of diluted phage (or media only) was added to the pre-plated test compound wells and appropriate control wells. The plates were centrifuged briefly, and then were incubated, inverted, at 37° C. for an additional 2 hr. Afterward, Alamar Blue reagent (Invitrogen, #DAL1100) was diluted 1:2 with LB broth and 1 μL was added to each plate well.

E. coli K1 strain UTI89 [2] = experiment: Secondary assay 2: T7 phage-mediated lysis assay; assay type: cell-based, Escherichia coli; details: n = 2, read-out: T7 phage IC50
Text: D. Secondary Assay 2: Screening for Inhibitors of Bacterial Capsule Biogenesis—T7 Lysis Inhibition
Purpose: This secondary assay measures the compound mechanistic specificity for inhibition of bacterial capsule formation and excludes inhibitors of phage replication using a different bacteriophage (T7). In this assay, an increase in phage-induced lysis correlates to a decrease in capsule formation.
Purpose: This secondary assay measures the compound mechanistic specificity for inhibition of bacterial capsule formation using a different bacterial phage (T7). In this assay, an increase in phage-induced lysis correlates to a decrease in capsule formation.
Assay Description: T7 phage-mediated lysis assay: This assay determined if the mechanism of action of the compound is inhibition of phage infectivity or replication. The T7 phage has a nearly identical genome to K1F, without encoding an endosialidase. Its cycle of replication is similar to that of K1F as well. However, T7 entry into E. coli is inhibited by K capsules. This secondary assay was conducted in the 96 well plate format. […] Compounds were added in quadruplicate to plates in a concentration dependent manner in the range of 100-0.39 μM, followed by addition of 100 μL of bacterial culture. 1% DMSO (final well concentration) was included. The plates were tape sealed and shaken vigorously for 1.5 hr. An initial OD600 reading was measured to identify compounds that cause growth retardation or bacterial killing in the absence of phage. Next, T7 phage (5 μL) was added to all of the test wells. The plates were resealed and shaken vigorously at 37° C., and measurements of OD600 for phage-mediated lysis were taken after 3 hr. True inhibitors of capsule yielded bacteria that were susceptible to T7 phage and lysed within 2 hr of the addition of phage. […] The positive control drug C7 (100 μM final well concentration) was used in this screen.
T7 phage counter assay. This secondary assay was performed as previously described and was used to distinguish compounds with phage inhibitory effects from true polysaccharide capsule inhibitors. […] Thus, the presence of a capsule inhibits T7-mediated lysis. In this assay, an increase in phage-induced lysis correlates to a decrease in capsule formation. True inhibitors of capsule yielded bacteria that were susceptible to T7 phage and lysed within 2 hr of the addition of phage. […] The positive control molecule C7 (100 μM final well concentration) was used in this screen.

[3] = tested on: Bladder carcinoma 5637 cells; experiment: Cytotoxicity counterscreen, CellTiter Glo, 72 hr; assay type: cell-based, human
Description: B. Counterscreen: Cytotoxicity Screening for Potential Inhibitors of Bacterial Capsule Biogenesis.
Purpose: This cell-based assay measures the cytotoxicity of compounds in bladder carcinoma 5637 cells using luminescent cell viability assay readout.
Cytotoxicity assay: The cytotoxicity assay was performed as described in Section 6: Appendix. Hit cytotoxicity and the 50% toxic concentration (CC50) was determined and compared to the IC50 to calculate the selectivity index.
Assay Description: Cytotoxicity: Dose response testing (dose range=300-0.58 μM) established the hit cytotoxicity data. Compounds were plated in 384-well microplates in a stacked dose response format using the same doses used in the efficacy dose response. Bladder carcinoma 5637 cells were added to the compounds, and 72 hr later cell viability was measured using CellTiter Glo (38). Hit cytotoxicity and the 50% toxic concentration (TC50) was determined and compared to the IC50 to calculate the therapeutic index. Test compounds are serially diluted in a plate to plate matrix or stacked plate matrix. All 320 compounds in a source plate are diluted together resulting in a 10 point dose response dilution series. It is visualized as a serial dilution series proceeding vertically through a stack of plates with the high dose plate on top and the low dose plate on the bottom.
Control Drug: Hyamine was used as a positive cytotoxic control. All wells contained 0.5% DMSO.
Preparation of Bladder carcinoma 5637 cells: Cells are harvested and resuspended to 80,000 cells per ml in Complete DMEM/F12®.
Endpoint Read: Following the three day incubation period, the assay plates were equilibrated to room temperature for 30 min and an equal volume (30 μL) of Cell Titer-Glo® reagent (Promega Inc.) is added to each well using a WellMate™ (Matrix, Hudson, N.H.) and plates are incubated for an additional 10 min at room temperature. At the end of the incubation, luminescence is measured using a Perkin Elmer Envision™ multi-label reader (PerkinElmer, Wellesley, Mass.) with an integration time of 0.1 s.
Cytotoxicity. Testing was performed essentially as previously described. Concentration-response testing was performed over a range 0.58-300 μM in a […] well plate format. Bladder carcinoma 5637 cells (ATCC HTB-9) were added to the compounds, and 72 hrs later cell viability was measured using CellTiter Glo (Promega). The 50% toxic concentration (TC50) was determined and compared to the IC50 to calculate the therapeutic index. Hyamine was used as a positive cytotoxic control. All wells contained 0.5% DMSO.

[4] = first round of synthetic analogues
[5] = second round of synthetic analogues

Structure (SMILES) | IC50 (E. coli K1 strain UTI89 [1]; [4]) [µM] | IC50 (E. coli K1 strain UTI89 [2]; [4]) [µM] | IC50 [3] [µM] | IC50 (E. coli K1 strain UTI89 [1]; [5]) [µM] | IC50 (E. coli K1 strain UTI89 [2]; [5]) [µM] | IC50 (E. coli K1 strain UTI89 [1]; purchased analogue series) [µM] | IC50 (E. coli K1 strain UTI89 [2]; purchased analogue series) [µM]
O=C(Nc1cc(-c2ccc(OC(F)(F)F)cc2)sc1C(=O)O)c1cc2ccccc2o1 [compound 53495058] | > 100 | 3.83 | 40.6 | – | – | – | –
O=C(O)c1sc(-c2ccc(OCCCC(F)(F)F)cc2)cc1NC(=O)c1c(F)cccc1F [compound 56643024] | – | – | 241 | 10.3 | < 2.5 | – | –
O=C(O)c1sc(-c2ccc(OCCCC(F)(F)F)cc2)cc1NC(=O)c1c(F)cc(F)cc1F [compound 56643015] | – | – | 54.7 | 5.53 | < 1.25 | – | –
COc1ccc(-c2cc(NC(=O)c3ccc(Br)o3)c(C(=O)O)s2)cc1 [compound 53470446] | 11.1 | 1.24 | 50.5 | – | – | – | –
O=C(Nc1cc(-c2ccccc2)sc1C(=O)O)c1cc2ccccc2o1 [compound 17548073] | – | – | 167 | – | – | > 100 | 6.7
Cc1ccc(-c2cc(NC(=O)c3cc4ccccc4o3)c(C(=O)O)s2)cc1 [compound 53470436] | > 100 | 20 | 94.6 | – | – | – | –
COc1ccc(-c2cc(NC(=O)c3cc4ccccc4o3)c(C(=O)O)s2)cc1 [compound 53470443] | > 100 | 8.36 | 44.8 | – | – | – | –
CCCc1ccc(-c2cc(NC(=O)c3c(F)cc(F)cc3F)c(C(=O)O)s2)cc1 [compound 56643011] | – | – | 69.9 | 15.9 | 2.5 to 5 | – | –
CCOc1ccc(-c2cc(NC(=O)c3c(F)cccc3C(F)(F)F)c(C(=O)O)s2)cc1 [compound 56643017] | – | – | 62 | 52.6 | < 5 | – | –
Cc1ccc(-c2cc(NC(=O)c3ccc(Br)o3)c(C(=O)O)s2)cc1 [compound 53470423] | 15.7 | 1.01 | 50.7 | – | – | – | –
CC(C)(C)c1ccc(-c2cc(NC(=O)c3cccc(F)c3)c(C(=O)O)s2)cc1 [compound 53470435] | 19.9 | 2.7 | 21.1 | – | – | – | –
O=C(Nc1cc(-c2ccc(OC(F)(F)F)cc2)sc1C(=O)O)c1ccc(Br)o1 [compound 53495057] | 6.39 | 1.17 | 33.6 | – | – | – | –
